Tests used:
[1] = tested on: guinea pigs excreting normal feces; experiment: Antidiarrheal effect: observation of feces after oral administration of saccharides or sugar alcohols with or without polysaccharides (Example 1); format: in vivo
Method: The criteria for analyzing the conditions of feces (hardness, shape and spaces of feces in the intestine) are as shown in Table 2:
The hardness and microscopic findings of feces from the group administered with distilled water were assessed as “Normal” scoring 3, the feces having normal shape and the shape could rather easily change by pushing with fingers were assessed as “Slightly soft” scoring 2, those of which the shape had already changed or it could quite easily change by pushed with fingers were assessed as “Soft” scoring 1, and those of which the shape is muddy or watery or of no shape were assessed “Muddy” scoring 0. To be precese, there are no watery feces because of the nature of diets and thus the muddy feces correspond to watery and muddy feces in human.
Since the muddy feces comprise large content of water, they induce the high abdominal pressure and the flatulence and distension. […] In the case of gas generation, it appears that noxious symptom such as the flatulence and distension are synergistically deteriorated. Therefore, we assessed not only based on the hardness of feces, but also the size, smoothness of the surface and amount of feces.
In these experiments, I observed is the diarrhea caused by saccharides or sugar alcohols and antidiarrhreal effect of saccharides. Guinea pigs orally received saccharides or sugar alcohols, for example tetrose such as erythritol, pentose such as xylitol or xylose, hexose such as isosorbitol or the like in combination with or without polysaccharides for observation of the feces up to 6 hours after the administration.
Guinea pigs (body weight 280 to 320 g, normal feces) were divided into four groups: for Group 1-a, xylitol alone (Reference Example 1), or xylitol and xanthan gum or pectin; for Group 1-b, xylose alone (Reference Example 2), xylose and xanthan gum or pectin; for Group 1-c, erythritol alone (Reference Example 3), erythritol and pectin, erythritol and xanthan gum, or erythritol, pectin and natural aluminum silicate gel or calcium carbonate; and for Group 1-d, isosorbitol alone (Reference Example 4), or isosorbitol and xanthan gum or pectin were orally administered, respectively. The compounds are dissolved in distilled water and 8 ml/kg of said solution were administered as a single dose.
The feces were observed during 6 hours after the administration. When the animals fell into the most serious condition, the hardness and shape of the feces from said animals were assessed as the effect by saccharides or sugar alcohols in the animals.

[2] = Volume of agent: volume, weight and particle size of formulations (Example 4); format: physicochemical; settings: 21 g of erythritol
Method: When erythritol is administered to an adult (60 kg body weight), the single dose may be 10 to 80 g, preferably 20 to 60 g. When 21 g of erythritol is administered as powder, the volume may be about 53 ml. Alternatively, administered as saturated aqueous solution, it requires 65 ml of distilled water, and volume and weight thereof is 78 ml and 86 g, respectively. Carrying it to administer 3 times daily is inconvenient for a patient with Meniere's disease.
The volume of this gel formulation is 20.25 ml and the weight thereof is 36 g. By drying and grinding this gel formulation, the volume increases to 33 ml, however it is convenient for carrying. The particle size of dry milled powder is described in Table 44. If water (10 ml) is added thereto prior to use and mixed, a gel formulation (23 ml) is again obtained.
The volume of this gel formulation is 20.25 ml and the weight thereof is 26.1 g. By drying and grinding this gel formulation, the volume increases to 31.5 ml. The particle size of dry milled powder is described in Table 44. If water (3 ml) is added thereto prior to use and mixed, a gel formulation (24 ml) is again obtained.

[3] = tested on: animal model of experimental endolymphatic hydrops; experiment: Reference Example 6: erythritol added polyvinylpyrrolidone, conditions of feces; format: in vivo, guinea pigs; settings: erythritol 2.8 g/kg oral, alone or with PVP
Method: Guinea pigs (280 to 350 g of body weight, normal feces) received the surgical obliteration of the endolymphatic sac in the left ear to prepare an “animal model of experimental endolymphatic hydrops”. The surgery was performed as previously described in Non-patent Reference 8.
One month after, the animals orally received erythritol (2.8 g/kg) added polyvinylpyrrolidone (0.5 g/kg, about 7.1% by weight). […] The result is shown in FIG. 10 with comparing Group 4 in Example 2 (Animals were sacrificed 3 hours after the administration of erythritol 2.8 g/kg alone).

[4] = active agent 2.8 g/kg oral, alone or with additives of the label, most serious condition within 6 hours

In the case of OC[C@@H](O)[C@@H](O)CO [Erythritol, erythritol], the “Time after administration of the peak (most serious) diarrhea” value ([1]; active agent 2.8 g/kg oral, alone or with additive of the label) is reported as “Three hours after”, the “Hardness of feces: Hard (number of animals)” value [1, 4] is reported as 0 and the “Hardness of feces: Muddy (number of animals)” value [1, 4] is reported as 5. The “Hardness of feces: Normal (number of animals)” value [1, 4] was 0, the “Hardness of feces: Slightly soft (number of animals)” value [1, 4] was 0 and the “Hardness of feces: Soft (number of animals)” value [1, 4] was 0. For the same compound, the “Animals in which muddy feces continued up to 6 hours after” value ([1]; erythritol 2.8 g/kg alone, 5 animals) was 3, the “Distilled water required for saturated aqueous solution” value [2] was 65 mL and the Volume as powder [2] was “about 53 ml”. The “Volume of saturated aqueous solution” value [2] was 78 mL, the “Weight of saturated aqueous solution” value [2] was 86 g and the “Hardness of feces 0 (Muddy): number of animals” value [3] was 5. For the same compound, the “Hardness of feces 1 (Soft): number of animals” value [3] was 0, the “Hardness of feces 2 (Slightly soft): number of animals” value [3] was 0 and the “Hardness of feces 3 (Normal): number of animals” value [3] was 0.
